Test results from paper PMC12068934 (Nature chemistry, 2024).

Key:
OvsA = OvsA (Vreelandella halophila, UniProt A0A9X4Y9G9); experiment: LC-MS after mBBr derivatization; assay type: biochemical; details: histidine 1 mM, DTT 4 mM, pH 8, room temperature
SenA = SenA (Variovorax paradoxus, UniProt A0ACH4EUD1); experiment: preparative enzymatic synthesis, product NMR; assay type: biochemical; details: DTT 20 mM, pH 8, room temperature, 24 h

SMILES	LC-MS after mBBr derivatization (OvsA)	preparative enzymatic synthesis, product NMR (SenA; hercynine 5 mM)	preparative enzymatic synthesis, product NMR (SenA; SeGlcNAc 6 mM)
CC(=O)N[C@@H]1[C@@H](O)[C@H](O)[C@@H](CO)O[C@H]1[SeH] [SeGlcNAc, N-acetyl-1-seleno-β-D-glucosamine]	reaction of the NHISS with SeGlcNAc and histidine resulted in rapid formation of a species	large-scale reaction containing SenA and its substrates hercynine and SeGlcNAc	–
C[N+](C)(C)[C@@H](Cc1cnc[nH]1)C(=O)[O-] [hercynine, Nα-trimethylhistidine]	–	–	large-scale reaction containing SenA and its substrates hercynine and SeGlcNAc
